Measured values as given in ChEMBL document CHEMBL1201862, “PubChem BioAssay data set” (2004).
Active and inactive are the calls of the source.

What was measured:
[1] = target: Eukaryotic translation initiation factor 4H (Homo sapiens, UniProt Q15056); assay: human eIF4H binding inhibitors, primary screen, translation initiation inhibitor project, biochemical, uHTS, fluorescence polarization (AID 2012)
[2] = target: Polyadenylate-binding protein 1 (Homo sapiens, UniProt P11940); assay: PABP poly(A) RNA binding inhibitors, primary screen, biochemical, fluorescence polarization, uHTS (AID 2014)
[3] = target: DNA dC->dU-editing enzyme APOBEC-3A (Homo sapiens, UniProt P31941); assay: Dose Response confirmation of small molecule APOBEC3A DNA Deaminase Inhibitors via a fluorescence-based single-stranded DNA deaminase assay. [Related pubchem assays (depositor defined):AID493011, AID493024]; assay type: functional
[4] = target: DNA dC->dU-editing enzyme APOBEC-3G (Homo sapiens, UniProt Q9HC16); assay type: functional;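 further: Dose-response counterscreen measuring inhibition of APOBEC3G DNA deaminase activity, run while confirming APOBEC3A inhibitors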
[5] = target: FAD-linked sulfhydryl oxidase ALR (Homo sapiens, UniProt P55789); assay: inhibitors of human ALR sulfhydryl oxidase, dose response, biochemical, H2O2 detection, luminescence, cherry-pick (AID 493248)
[6] = target: T1, Rac GTPase-activating protein 1 (Homo sapiens, UniProt Q9H0H5); assay: MgcRacGAP GTPase-activating activity inhibitors, confirmation, biochemical, ADP Hunter fluorescence, primary and confirmatory (AID 624330); assay type: functional
T1 sequence (Q9H0H5 whole entry): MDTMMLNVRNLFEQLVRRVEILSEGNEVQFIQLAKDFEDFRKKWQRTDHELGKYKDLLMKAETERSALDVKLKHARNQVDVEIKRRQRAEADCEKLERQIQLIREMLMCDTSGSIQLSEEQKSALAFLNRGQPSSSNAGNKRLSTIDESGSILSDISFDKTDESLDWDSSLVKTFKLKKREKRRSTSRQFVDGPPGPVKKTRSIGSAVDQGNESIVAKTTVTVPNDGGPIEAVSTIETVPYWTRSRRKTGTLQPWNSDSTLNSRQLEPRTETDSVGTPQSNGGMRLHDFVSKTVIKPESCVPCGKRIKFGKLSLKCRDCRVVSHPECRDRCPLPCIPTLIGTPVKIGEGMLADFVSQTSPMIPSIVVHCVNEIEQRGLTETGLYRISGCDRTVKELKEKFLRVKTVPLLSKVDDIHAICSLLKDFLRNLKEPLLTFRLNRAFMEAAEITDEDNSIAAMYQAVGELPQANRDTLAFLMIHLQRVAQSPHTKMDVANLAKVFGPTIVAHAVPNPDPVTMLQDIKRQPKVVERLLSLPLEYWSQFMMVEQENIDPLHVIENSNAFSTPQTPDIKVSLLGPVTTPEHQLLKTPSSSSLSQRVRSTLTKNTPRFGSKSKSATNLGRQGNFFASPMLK

[7] = inhibitors of Vif binding to APOBEC3G peptide, primary screen, biochemical, TR-FRET, GST-Vif 1-94, biotin-A3G peptide, dose response retest (AID 1117319); assay type: functional;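 further: TR-FRET signal of purified GST-Vif binding a biotinylated A3G peptide; inhibitors lower the FRET signal by blocking Vif and A3G binding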
[8] = target: T2, Estrogen receptor (Homo sapiens, UniProt P03372);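 further: potency for inhibiting coactivator peptide recruitment to the receptor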
T2 sequence (P03372 whole entry): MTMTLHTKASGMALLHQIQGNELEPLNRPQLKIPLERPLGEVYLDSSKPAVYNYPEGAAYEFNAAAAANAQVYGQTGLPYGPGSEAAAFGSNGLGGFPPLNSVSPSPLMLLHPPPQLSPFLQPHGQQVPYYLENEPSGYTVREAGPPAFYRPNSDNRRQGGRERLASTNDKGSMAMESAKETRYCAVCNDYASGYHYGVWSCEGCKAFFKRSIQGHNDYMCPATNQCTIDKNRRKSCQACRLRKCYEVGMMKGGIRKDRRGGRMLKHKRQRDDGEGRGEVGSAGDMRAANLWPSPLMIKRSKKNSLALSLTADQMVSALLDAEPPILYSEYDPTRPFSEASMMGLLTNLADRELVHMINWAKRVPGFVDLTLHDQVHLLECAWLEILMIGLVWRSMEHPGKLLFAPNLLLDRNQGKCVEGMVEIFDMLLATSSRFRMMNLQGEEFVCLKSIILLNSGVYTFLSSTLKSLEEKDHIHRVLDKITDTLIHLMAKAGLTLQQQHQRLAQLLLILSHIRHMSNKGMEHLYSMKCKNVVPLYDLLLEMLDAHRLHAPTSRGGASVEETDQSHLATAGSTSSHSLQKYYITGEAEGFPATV

[9] = target: T3, Aminopeptidase N (Plasmodium falciparum FcB1/Columbia, UniProt O96935); assay: P. falciparum M1AAP inhibitors, biochemical, fluorogenic H-Leu-NHMec substrate, 1536-well (AID 1445); parameters: species or system Plasmodium falciparum 3D7, 3D7
T3 sequence (O96935 whole entry): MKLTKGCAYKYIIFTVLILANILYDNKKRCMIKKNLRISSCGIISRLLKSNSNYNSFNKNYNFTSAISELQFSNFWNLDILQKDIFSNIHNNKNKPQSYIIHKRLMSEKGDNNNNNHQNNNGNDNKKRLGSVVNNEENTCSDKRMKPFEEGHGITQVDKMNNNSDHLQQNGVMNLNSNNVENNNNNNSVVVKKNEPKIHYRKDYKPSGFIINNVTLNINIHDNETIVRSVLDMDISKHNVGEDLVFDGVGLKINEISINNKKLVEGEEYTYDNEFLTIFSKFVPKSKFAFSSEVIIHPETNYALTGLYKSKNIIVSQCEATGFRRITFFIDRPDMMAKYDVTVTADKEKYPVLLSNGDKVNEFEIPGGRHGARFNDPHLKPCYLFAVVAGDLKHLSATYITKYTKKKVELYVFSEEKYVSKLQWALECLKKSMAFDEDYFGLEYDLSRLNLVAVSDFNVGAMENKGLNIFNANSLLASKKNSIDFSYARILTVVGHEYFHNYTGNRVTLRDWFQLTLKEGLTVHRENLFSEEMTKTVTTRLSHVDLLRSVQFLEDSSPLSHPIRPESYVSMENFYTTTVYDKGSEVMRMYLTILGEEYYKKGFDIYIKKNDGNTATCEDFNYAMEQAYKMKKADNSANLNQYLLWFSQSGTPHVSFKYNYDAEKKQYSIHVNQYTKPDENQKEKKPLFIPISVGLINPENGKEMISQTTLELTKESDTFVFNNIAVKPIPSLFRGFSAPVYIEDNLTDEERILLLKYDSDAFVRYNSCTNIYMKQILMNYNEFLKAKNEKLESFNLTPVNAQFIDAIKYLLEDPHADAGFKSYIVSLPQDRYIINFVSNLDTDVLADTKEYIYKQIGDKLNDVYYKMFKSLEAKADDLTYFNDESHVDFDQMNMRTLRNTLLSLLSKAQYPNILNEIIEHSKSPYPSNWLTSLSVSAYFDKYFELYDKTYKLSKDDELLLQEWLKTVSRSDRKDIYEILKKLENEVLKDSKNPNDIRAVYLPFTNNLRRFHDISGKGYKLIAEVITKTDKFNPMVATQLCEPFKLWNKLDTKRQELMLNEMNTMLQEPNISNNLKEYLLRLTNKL

[10] = target: Large T antigen (Simian virus 40, UniProt P03070); assay type: functional, Betapolyomavirus macacae;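 further: Confirmatory-stage PubChem screen for compounds that inhibit SV40 T antigen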
[11] = target: Prothrombin (Homo sapiens, UniProt P00734); assay: Thrombin 1536 HTS Dose Response Confirmation. [Related pubchem assays: 1046 (Thrombin 1536 HTS; hits were confirmed in this assay)]; assay type: functional
[12] = target: T4, Aryl hydrocarbon receptor (Homo sapiens, UniProt P35869); assay: Luminescence-based cell-based high throughput dose response assay for activators of the Aryl Hydrocarbon Receptor (AHR). [Related pubchem assays: 2796 (Primary screen (AHR activators in singlicate)), 2845 (Confirmation screen (AHR activators in triplicate)), 434939 (Counterscreen (PXR activators in triplicate)), 2804 (Summary (AHR activators))]; assay type: ADME
T4 sequence (P35869 whole entry): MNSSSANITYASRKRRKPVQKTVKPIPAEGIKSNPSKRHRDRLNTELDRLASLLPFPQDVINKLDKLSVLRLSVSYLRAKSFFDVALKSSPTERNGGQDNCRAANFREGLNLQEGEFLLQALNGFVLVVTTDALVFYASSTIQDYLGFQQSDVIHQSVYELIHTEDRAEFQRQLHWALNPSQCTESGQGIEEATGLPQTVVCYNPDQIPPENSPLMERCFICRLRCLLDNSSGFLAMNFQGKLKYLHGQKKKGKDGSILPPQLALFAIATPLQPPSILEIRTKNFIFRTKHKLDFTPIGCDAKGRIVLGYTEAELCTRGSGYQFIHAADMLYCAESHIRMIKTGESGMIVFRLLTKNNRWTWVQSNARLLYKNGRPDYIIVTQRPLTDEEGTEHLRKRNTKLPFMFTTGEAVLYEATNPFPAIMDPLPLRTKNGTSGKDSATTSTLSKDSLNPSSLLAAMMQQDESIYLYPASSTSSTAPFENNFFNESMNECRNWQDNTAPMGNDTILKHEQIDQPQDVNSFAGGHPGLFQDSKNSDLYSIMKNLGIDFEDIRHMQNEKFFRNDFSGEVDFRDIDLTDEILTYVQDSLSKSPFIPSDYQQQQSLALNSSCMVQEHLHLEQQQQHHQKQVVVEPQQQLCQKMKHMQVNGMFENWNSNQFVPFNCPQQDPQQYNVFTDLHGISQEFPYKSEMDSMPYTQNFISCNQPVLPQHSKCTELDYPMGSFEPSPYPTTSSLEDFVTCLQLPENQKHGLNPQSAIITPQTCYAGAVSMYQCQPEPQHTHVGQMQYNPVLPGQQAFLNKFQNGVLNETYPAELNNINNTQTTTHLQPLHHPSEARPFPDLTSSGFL

[13] = target: T5, Hexokinase HKDC1 (Homo sapiens, UniProt Q2TB90); assay: HKDC1 hexokinase inhibitors, dose response, biochemical, W721R variant (AID 504729); assay type: functional
T5 sequence (Q2TB90 whole entry): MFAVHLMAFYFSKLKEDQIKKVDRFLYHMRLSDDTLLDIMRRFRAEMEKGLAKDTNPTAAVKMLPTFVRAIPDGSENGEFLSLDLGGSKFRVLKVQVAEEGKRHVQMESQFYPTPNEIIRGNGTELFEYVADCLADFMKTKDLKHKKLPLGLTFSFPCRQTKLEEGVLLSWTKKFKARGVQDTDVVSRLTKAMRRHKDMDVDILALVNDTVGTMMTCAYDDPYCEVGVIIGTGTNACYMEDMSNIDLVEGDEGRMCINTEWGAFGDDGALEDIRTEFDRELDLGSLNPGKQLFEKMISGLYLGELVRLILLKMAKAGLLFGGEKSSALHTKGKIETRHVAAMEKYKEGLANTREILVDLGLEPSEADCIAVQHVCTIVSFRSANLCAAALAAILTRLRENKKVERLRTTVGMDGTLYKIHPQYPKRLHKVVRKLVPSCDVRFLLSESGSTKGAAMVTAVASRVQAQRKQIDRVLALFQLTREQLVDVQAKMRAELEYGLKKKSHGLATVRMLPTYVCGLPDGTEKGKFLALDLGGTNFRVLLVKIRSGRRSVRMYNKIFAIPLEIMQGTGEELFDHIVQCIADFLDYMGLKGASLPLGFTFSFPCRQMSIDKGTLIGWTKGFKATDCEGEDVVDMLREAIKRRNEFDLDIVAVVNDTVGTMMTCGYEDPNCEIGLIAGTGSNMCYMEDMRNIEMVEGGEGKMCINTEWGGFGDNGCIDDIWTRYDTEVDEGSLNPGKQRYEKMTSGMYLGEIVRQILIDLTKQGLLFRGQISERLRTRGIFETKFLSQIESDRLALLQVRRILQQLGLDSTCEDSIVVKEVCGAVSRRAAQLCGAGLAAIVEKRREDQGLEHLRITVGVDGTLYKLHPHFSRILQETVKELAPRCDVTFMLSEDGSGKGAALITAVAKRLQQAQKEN

[14] = tested on: H9c2; assay: cells; assay type: functional, cell-based; details: Rattus norvegicus, H9c2, Myocardium;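 further: confirmatory concentration-response retest of ultra-high-throughput screening hits for modulation of myocardial damage; cell death induced by hydrogen peroxide oxidative stress; compound pretreatment for 60 min then peroxide exposure for 2 h; potency is for protecting the cells against peroxide damage rather than for killing them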
[15] = NIH-3T3 fibroblast cytotoxicity, dose response, cytotoxicity control, cell-based, fluorescence, Alamar Blue, secondary assay (AID 2327); assay type: functional;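 further: NIH-3T3 mouse fibroblasts cultured with fluconazole at 8 µg/mL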
[16] = C. albicans growth with fluconazole, confirmation, fluorescence, retest (AID 2467); assay type: functional, cell-based
[17] = target: Nonstructural protein 1 (Influenza A virus, UniProt Q194T2); assay type: functional, Influenza A virus (A/California/07/2009(H1N1))
Sequence of Nonstructural protein 1 (Q194T2 whole entry): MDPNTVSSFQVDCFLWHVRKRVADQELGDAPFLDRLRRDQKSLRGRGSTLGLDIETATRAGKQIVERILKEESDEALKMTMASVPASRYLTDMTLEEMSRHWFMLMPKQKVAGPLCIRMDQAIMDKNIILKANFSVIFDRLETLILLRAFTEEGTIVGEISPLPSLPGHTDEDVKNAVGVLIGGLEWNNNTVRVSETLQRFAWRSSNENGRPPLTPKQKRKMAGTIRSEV

Sequence of Polyadenylate-binding protein 1 (P11940 whole entry): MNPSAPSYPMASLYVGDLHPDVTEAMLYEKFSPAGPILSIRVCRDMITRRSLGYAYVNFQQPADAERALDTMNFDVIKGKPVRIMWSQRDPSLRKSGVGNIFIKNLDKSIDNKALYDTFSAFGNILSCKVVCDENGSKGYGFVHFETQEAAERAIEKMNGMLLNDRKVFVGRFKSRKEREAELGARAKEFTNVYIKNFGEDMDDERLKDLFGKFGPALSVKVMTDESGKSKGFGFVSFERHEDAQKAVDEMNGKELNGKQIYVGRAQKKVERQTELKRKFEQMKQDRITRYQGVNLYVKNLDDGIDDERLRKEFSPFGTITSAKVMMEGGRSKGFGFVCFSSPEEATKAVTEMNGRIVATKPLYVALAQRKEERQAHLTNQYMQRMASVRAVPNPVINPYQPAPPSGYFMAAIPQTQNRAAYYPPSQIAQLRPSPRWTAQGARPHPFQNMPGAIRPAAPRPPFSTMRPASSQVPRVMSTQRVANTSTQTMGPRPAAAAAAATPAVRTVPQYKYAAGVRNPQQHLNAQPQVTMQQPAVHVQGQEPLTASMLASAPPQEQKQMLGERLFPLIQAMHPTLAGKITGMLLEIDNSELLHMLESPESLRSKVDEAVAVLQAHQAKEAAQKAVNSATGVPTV
Sequence of FAD-linked sulfhydryl oxidase ALR (P55789 whole entry): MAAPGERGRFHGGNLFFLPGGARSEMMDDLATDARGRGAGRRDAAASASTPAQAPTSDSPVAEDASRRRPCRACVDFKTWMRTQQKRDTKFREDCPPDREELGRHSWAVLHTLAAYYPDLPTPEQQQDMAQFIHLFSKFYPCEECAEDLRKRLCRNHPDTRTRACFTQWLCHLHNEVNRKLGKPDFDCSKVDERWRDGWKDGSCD
Sequence of Large T antigen (P03070 whole entry): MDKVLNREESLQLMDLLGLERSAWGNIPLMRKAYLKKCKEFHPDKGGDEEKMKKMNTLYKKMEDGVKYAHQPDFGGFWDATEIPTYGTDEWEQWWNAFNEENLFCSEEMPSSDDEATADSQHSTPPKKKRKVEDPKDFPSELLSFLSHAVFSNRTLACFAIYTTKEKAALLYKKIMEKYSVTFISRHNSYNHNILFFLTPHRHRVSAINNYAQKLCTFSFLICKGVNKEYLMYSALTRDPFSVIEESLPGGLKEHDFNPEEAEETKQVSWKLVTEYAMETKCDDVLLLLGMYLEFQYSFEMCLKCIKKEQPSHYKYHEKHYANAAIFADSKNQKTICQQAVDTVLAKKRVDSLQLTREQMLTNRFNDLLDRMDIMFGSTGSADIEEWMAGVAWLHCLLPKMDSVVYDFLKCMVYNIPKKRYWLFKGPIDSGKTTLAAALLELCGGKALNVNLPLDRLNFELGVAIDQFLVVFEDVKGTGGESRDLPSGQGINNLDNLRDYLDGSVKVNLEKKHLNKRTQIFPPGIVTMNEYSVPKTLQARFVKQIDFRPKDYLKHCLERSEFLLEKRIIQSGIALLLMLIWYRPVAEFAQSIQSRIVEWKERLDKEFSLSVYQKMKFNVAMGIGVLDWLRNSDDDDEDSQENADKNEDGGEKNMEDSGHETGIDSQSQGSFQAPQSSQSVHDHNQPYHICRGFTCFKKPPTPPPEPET
Sequence of DNA dC->dU-editing enzyme APOBEC-3A (P31941 whole entry): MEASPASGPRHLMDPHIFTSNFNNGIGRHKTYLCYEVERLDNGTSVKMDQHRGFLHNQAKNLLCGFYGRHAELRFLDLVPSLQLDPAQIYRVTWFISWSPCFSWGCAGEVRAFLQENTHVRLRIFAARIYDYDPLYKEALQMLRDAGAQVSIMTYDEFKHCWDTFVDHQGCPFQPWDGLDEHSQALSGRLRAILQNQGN
Sequence of DNA dC->dU-editing enzyme APOBEC-3G (Q9HC16 whole entry): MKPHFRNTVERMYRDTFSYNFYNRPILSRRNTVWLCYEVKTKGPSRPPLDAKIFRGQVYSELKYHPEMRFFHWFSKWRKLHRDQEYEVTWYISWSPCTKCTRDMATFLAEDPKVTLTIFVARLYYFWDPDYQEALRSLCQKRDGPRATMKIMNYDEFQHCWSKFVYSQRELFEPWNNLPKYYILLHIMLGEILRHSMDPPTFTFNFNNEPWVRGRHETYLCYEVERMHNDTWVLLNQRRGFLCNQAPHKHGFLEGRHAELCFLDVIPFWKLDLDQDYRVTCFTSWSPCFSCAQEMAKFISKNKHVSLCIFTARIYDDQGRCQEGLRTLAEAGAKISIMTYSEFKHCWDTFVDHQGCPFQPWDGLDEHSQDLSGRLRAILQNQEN

## COc1ccc(N(CC(=O)N2CCCCCC2)S(=O)(=O)c2ccccc2[N+](=O)[O-])c(OC)c1
[1]
  IC50: > 100 µM (inactive)
[2]
  IC50: 11.9 µM (active)
[3]
  IC50: 5.63 µM (active)
[4]
  IC50: 4.83 µM (active)

## CCN(CC)c1ccc(NC(=O)c2ccc(Br)o2)cc1
[5]
  AC50: 0.745 µM (active)
[6]
  IC50: 25.9 µM (active)
[7]
  IC50: > 100 µM (active)

## COc1cc(-c2nnc(-c3ccc(S(=O)(=O)c4ccccc4)cc3)o2)cc(OC)c1OC
[8]
  IC50: > 50 µM (not active)

## O=C(Nc1nc2ccccc2s1)c1cc2c(s1)-c1ccccc1OC2
[8]
  IC50: > 50 µM (not active)

## COc1cc(/C=C2\SC(=S)N(C(Cc3ccccc3)C(=O)O)C2=O)ccc1O (stereo unspecified)
[9]
  IC50: 42.3 µM (active)
[10]
  IC50: 65 µM (active)

## CCC(=O)n1nc(-c2ccc(Cl)cc2)nc1SC
[11]
  IC50: 7.14 µM (active)

## Nc1nncn1C(=O)CCc1ccccc1
[11]
  IC50: 0.605 µM (active)

## COc1ccccc1NC(=O)C1C2CCCCC21 (stereo unspecified)
[11]
  IC50: > 50 µM (not active)

## Cn1c(N)c(C(=O)Nc2ccccc2F)sc1=S
[12]
  EC50: 0.857 µM (active)

## C[n+]1cnn2c1SCC1(COC1)C2
[1]
  IC50: > 100 µM (inactive)
[2]
  IC50: 4.59 µM (active)

## CCCS(=O)(=O)N1CCC(C(=O)NCc2ccc(F)cc2)CC1
[9]
  IC50: 31.6 µM (active)

## COC(=O)C1CC(=O)c2ccsc2C1 (stereo unspecified)
[11]
  IC50: > 50 µM (not active)

## COc1cc(/C=C2/C(=O)NN(c3ccc(Cl)c(Cl)c3)C2=O)cc([N+](=O)[O-])c1O
[10]
  IC50: 12.5 µM (active)
[5]
  AC50: 0.409 µM (active)
[13]
  IC50: 32.5 µM (inactive)

## Cc1cc(C(F)F)n2ncc(C(=O)NCCc3ccc(Cl)cc3)c2n1
[13]
  IC50: 12.7 µM (active)

## CC(=O)n1cc(/C=N/NC(=O)c2sc(C)nc2C)c2ccccc21
[12]
  EC50: > 91.7 µM (not active)
[14]
  IC50: > 79 µM (inactive)

## Cn1c(=O)c2c(nc(/C=C/c3cccc(Cl)c3)n2C)n(C)c1=O
[12]
  EC50: 3.34 µM (active)

## Oc1ccc(/C=N/N(c2ccccc2)c2ccccc2)c(O)c1O
[15]
  EC50: > 160 µM (inactive)
[1]
  IC50: 31.7 µM (active)
[16]
  EC50: > 38 µM (not active)
[2]
  IC50: > 100 µM (inactive)
[17]
  IC50: 47.6 µM (active)
